The values that follow come from ChEMBL document CHEMBL3991601, “The target landscape of clinical kinase drugs” (Science, 2017).

In test [1] the target is T1, ATP-dependent RNA helicase DDX1 (Homo sapiens, UniProt Q92499).
T1 sequence (Q92499 whole entry): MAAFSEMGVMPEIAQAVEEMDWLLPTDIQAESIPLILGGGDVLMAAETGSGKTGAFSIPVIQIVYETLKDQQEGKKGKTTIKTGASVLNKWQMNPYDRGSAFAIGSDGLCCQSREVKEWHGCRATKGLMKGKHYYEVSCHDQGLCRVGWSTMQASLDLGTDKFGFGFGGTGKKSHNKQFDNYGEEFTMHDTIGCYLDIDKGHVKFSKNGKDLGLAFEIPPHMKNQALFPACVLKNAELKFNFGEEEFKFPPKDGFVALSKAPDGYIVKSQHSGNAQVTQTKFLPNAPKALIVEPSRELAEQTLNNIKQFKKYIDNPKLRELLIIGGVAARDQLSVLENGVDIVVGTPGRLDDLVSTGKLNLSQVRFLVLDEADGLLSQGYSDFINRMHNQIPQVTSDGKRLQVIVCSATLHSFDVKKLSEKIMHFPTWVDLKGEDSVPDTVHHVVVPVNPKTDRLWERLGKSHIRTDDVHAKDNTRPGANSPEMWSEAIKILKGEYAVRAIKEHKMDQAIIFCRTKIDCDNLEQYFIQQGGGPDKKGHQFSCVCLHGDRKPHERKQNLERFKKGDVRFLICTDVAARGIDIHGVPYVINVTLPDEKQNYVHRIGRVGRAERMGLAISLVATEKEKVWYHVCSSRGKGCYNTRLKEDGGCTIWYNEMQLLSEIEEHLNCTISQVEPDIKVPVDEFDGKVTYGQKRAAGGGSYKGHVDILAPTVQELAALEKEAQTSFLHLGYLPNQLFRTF

Test [2] has as its target T2, Mitogen-activated protein kinase kinase kinase 3 (Homo sapiens, UniProt Q99759).
T2 sequence (Q99759 whole entry): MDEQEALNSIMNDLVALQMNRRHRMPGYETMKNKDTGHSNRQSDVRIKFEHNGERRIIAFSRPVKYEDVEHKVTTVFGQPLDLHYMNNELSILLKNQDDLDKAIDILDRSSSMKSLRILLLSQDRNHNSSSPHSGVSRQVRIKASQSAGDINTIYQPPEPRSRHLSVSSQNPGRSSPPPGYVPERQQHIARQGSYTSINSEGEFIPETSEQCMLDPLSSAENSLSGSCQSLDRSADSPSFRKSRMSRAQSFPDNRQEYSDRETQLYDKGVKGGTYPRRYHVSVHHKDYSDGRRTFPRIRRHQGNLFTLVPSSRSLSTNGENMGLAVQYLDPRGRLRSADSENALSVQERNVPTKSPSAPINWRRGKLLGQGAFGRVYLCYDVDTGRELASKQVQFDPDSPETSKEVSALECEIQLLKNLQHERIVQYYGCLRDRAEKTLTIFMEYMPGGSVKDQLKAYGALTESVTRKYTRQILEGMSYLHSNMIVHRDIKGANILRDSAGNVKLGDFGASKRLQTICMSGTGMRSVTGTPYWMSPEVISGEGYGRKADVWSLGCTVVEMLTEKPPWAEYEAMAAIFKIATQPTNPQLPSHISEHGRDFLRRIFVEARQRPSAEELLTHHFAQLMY

Test [3] concerns the target T3, Glycogen phosphorylase, brain form (Homo sapiens, UniProt P11216).
T3 sequence (P11216 whole entry): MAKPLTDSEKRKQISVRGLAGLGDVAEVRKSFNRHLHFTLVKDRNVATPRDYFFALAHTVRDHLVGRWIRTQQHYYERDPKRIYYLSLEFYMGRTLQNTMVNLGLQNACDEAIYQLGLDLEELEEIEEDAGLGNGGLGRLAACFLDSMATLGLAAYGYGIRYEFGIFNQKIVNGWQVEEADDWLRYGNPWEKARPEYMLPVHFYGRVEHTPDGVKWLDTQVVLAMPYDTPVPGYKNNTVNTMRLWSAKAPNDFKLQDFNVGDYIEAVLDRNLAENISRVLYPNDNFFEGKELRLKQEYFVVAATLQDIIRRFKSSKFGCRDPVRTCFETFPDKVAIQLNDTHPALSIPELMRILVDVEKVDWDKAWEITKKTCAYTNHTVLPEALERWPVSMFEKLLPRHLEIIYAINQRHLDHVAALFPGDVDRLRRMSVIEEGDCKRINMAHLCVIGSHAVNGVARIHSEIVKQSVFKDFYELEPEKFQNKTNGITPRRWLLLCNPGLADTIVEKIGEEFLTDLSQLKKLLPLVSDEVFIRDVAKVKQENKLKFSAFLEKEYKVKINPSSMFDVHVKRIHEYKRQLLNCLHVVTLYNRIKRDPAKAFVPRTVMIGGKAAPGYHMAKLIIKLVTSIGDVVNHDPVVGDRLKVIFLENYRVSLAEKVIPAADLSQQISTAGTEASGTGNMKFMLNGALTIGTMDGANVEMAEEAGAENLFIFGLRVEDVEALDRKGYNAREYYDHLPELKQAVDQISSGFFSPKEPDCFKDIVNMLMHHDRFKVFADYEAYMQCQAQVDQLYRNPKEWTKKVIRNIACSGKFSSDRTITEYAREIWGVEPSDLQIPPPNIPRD

Test [4] deals with Rho-associated protein kinase 1 (Homo sapiens, UniProt Q13464).
Test [5] has as its target Tyrosine-protein kinase Yes (Homo sapiens, UniProt P07947).
In test [6] the target is T4, Cysteine--tRNA ligase, cytoplasmic (Homo sapiens, UniProt P49589).
T4 sequence (P49589 whole entry): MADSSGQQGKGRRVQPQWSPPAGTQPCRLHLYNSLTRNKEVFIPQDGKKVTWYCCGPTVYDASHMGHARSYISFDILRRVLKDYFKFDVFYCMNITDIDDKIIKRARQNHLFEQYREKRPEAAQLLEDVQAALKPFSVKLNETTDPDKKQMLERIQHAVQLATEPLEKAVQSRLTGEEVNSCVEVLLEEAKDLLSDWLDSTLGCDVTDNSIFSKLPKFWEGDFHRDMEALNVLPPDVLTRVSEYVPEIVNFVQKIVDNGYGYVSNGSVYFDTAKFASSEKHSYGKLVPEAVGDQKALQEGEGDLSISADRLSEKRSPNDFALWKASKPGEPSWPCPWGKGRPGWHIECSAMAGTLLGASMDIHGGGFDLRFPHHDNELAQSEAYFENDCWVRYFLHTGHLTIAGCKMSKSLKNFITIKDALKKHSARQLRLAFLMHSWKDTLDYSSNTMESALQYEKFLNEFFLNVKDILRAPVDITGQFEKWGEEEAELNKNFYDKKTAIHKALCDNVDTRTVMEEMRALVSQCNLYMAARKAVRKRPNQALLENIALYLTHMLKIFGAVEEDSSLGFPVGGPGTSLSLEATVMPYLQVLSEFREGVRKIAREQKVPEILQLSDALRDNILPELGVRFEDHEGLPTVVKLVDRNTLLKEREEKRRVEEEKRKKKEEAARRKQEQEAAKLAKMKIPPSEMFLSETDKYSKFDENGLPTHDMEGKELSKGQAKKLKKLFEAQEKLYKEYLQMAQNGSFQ

Active and inactive are the calls of the source. Some results are limits rather than exact numbers.

One may read the Kd as the free concentration of one partner at which half of the binding sites on the other are occupied at equilibrium, for simple one-to-one binding.
Also: in the data inactive means no Kd found up to 30 µM.

Tyrosine-protein kinase Yes, sequence (P07947 whole entry): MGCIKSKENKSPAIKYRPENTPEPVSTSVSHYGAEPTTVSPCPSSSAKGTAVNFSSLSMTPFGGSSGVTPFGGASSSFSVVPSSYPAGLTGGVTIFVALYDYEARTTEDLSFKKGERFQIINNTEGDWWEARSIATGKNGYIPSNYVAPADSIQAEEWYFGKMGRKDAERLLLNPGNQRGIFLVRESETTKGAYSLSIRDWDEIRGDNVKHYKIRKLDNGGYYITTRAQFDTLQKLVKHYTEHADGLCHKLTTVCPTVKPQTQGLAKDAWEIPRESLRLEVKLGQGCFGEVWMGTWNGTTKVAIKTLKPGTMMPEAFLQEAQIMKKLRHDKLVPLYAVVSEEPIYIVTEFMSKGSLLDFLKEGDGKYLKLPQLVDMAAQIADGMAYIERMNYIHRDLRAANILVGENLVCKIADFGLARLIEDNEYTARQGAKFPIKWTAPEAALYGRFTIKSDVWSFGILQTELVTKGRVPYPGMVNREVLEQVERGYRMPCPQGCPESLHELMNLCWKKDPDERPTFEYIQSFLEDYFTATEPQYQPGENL
Rho-associated protein kinase 1, sequence (Q13464 whole entry): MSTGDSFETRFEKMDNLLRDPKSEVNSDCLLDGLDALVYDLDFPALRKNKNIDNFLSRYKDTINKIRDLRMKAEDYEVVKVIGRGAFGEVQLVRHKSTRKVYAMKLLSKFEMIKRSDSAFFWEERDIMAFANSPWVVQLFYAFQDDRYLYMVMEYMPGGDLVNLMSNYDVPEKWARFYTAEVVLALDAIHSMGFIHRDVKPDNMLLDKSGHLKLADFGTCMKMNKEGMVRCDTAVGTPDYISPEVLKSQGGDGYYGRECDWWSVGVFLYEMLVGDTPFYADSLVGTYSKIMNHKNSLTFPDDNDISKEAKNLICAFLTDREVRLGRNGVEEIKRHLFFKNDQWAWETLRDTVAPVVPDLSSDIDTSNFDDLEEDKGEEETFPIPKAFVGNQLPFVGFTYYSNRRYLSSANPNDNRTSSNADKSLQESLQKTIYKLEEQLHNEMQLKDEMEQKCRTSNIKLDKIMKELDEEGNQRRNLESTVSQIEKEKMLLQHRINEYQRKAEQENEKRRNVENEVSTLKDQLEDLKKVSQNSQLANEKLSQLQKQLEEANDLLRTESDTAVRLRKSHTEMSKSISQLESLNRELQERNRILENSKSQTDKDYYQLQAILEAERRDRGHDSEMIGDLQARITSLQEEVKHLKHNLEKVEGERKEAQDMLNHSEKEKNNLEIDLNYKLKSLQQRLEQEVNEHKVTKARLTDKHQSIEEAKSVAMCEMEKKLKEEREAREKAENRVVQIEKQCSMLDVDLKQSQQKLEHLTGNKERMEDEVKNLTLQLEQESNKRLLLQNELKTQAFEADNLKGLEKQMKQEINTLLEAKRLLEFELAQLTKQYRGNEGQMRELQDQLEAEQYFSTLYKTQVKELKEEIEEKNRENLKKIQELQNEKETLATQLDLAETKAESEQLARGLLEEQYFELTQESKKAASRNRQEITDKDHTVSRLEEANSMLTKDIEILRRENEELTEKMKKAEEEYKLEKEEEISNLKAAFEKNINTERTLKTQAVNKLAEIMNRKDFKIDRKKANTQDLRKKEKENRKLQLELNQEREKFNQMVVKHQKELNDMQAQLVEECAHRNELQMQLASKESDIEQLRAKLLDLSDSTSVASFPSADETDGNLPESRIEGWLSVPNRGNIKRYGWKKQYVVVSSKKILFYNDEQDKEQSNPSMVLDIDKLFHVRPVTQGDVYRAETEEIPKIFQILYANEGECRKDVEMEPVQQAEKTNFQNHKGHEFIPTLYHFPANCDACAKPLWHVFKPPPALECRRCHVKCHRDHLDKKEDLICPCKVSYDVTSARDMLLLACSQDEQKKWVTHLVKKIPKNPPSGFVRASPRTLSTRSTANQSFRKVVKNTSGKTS

Regarding `C[C@@H](Nc1cc(F)cc(F)c1)c1cc(C(=O)N(C)C)cc2c(=O)cc(N3CCOCC3)oc12` [AZD-8186], the Kd in test [1], in test [2], in test [3], in test [4] and in test [5] was > 30 µM (inactive) each time.
Take `Cc1nc(N)sc1-c1ccnc(Nc2ccc(N3CCOCC3)cc2)n1` [CYC-116]: the Kd in test [6], in test [1], in test [2], in test [3] and in test [5] was > 30 µM (inactive) in each case.
As to `Cc1cc(Nc2cc(N3CCN(C)CC3)nc(/C=C/c3ccccc3)n2)n[nH]1` [ENMD-2076], the Kd in test [6] is > 30 µM (inactive); in test [1], > 30 µM (inactive); in test [2] it was > 30 µM (inactive); in test [3] it was > 30 µM (inactive); in test [5], 0.441 µM (active).
`O=C(Nc1cccc(Cl)c1)Nc1ncc(CCNc2ncnc3ccsc23)s1` [SNS-314]: the Kd in test [6], in test [1], in test [2], in test [3] and in test [5] was > 30 µM (inactive) each time.
In the case of `Nc1nc(N)c2nc(-c3cccc(O)c3)c(-c3cccc(O)c3)nc2n1` [TG100-115], the Kd in test [6], in test [1] and in test [3] was > 30 µM (inactive) throughout.
On to `CN1CCN(c2ccc3nc(-c4c(N)c5c(F)cccc5[nH]c4=O)[nH]c3c2)CC1` [DOVITINIB], for which the Kd in test [6], in test [1] and in test [3] was > 30 µM (inactive) throughout.
Turning to `CCc1cnn2c(NCc3ccc[n+]([O-])c3)cc(N3CCCC[C@H]3CCO)nc12` [DINACICLIB], the Kd in test [6], in test [1], in test [2], in test [3] and in test [5] was > 30 µM (inactive) throughout.
For the compound `OCCn1cc(-c2cnc3nnn(Cc4ccc5ncccc5c4)c3n2)cn1` [PF-04217903], the Kd in test [6], in test [1], in test [2], in test [3] and in test [5] was > 30 µM (inactive) throughout.
Take `COc1cc(CCc2cc(NC(=O)c3ccc(N4C[C@@H](C)N[C@@H](C)C4)cc3)n[nH]2)cc(OC)c1` [AZD-4547]: the Kd in test [6], in test [1], in test [2], in test [3] and in test [5] was > 30 µM (inactive) in each case.
Regarding `O=C(Nc1ccc(-c2ccnc(Nc3ccc(N4CCOCC4)cc3)n2)cc1)C1CCCN1` (stereo not given) [XL-019], the Kd in test [6], in test [1], in test [2], in test [3] and in test [5] was > 30 µM (inactive) throughout.
Consider `CCn1c(-c2nonc2N)nc2c(C#CC(C)(C)O)ncc(OC[C@H]3CCCNC3)c21` [GSK-690693], for which the Kd in test [6], in test [1] and in test [3] was > 30 µM (inactive) in each case.
As to `Cc1cn(-c2cc(NC(=O)c3ccc(C)c(Nc4nccc(-c5cccnc5)n4)c3)cc(C(F)(F)F)c2)cn1` [NILOTINIB], the Kd in test [6] and in test [1] was > 30 µM (inactive) in each case.
For the compound `C=CC(=O)N1CCC(Oc2cc3c(Nc4ccc(Cl)c(Cl)c4F)ncnc3cc2OC)CC1` [POZIOTINIB], the Kd in test [2], in test [3], in test [4] and in test [5] was > 30 µM (inactive) in each case.
Consider `CC(C)Nc1cc(-c2c[nH]c(C(=O)N[C@H](CO)c3cccc(Cl)c3)c2)c(Cl)cn1` [ULIXERTINIB], for which the Kd in test [6], in test [1], in test [2], in test [3] and in test [5] was > 30 µM (inactive) each time.
